Test results reported in patent US4198506A, “2-Carboxyalkyl-2,3-dihydro-6-mercapto-s-triazolo[4,3-b]-pyridazin-3-ones” (Bristol-Myers Company, priority 1979, dated 1980).
In brackets after ≈: the same amount, converted by molar mass. Several values for one entry are separate records, joined by “and”; a condition that tells them apart may be missing. Identical values can stand only once. Like-named read-outs stand apart in the source and are kept apart here.

Tests used:
S. aureus (sensitive) = experiment: In vitro activity (geometric mean MIC, serial dilution); format: cell-based; conditions: Staphylococcus aureus, read-out: Geometric Mean MIC
E. coli (sensitive) = experiment: as above; format: cell-based; conditions: Escherichia coli, read-out: Geometric Mean MIC
[1] = system: E. coli (Penicillinase +); experiment: as above; format: cell-based; conditions: Escherichia coli; 7 strains; Mueller-Hinton agar, inoculum 10^4 dilution; MIC cutoff 200 mcg./ml.; read-out: Geometric Mean MIC
Proteus (indole-) = experiment: as above; format: cell-based; conditions: read-out: Geometric Mean MIC
Klebsiella sp. = experiment: as above; format: cell-based; conditions: 12 strains, Mueller-Hinton agar, inoculum 10^4 dilution, MIC cutoff 200 mcg./ml., read-out: Geometric Mean MIC
Pr. mirabilis = experiment: In vitro antibacterial activity (Steers' agar dilution MIC); format: cell-based; conditions: Proteus mirabilis
Pr. morganii = experiment: as above; format: cell-based; conditions: Morganella morganii
S. aureus Smith = experiment: In vivo activity (Mice, sc); conditions: several determinations listed; for ED50: Staphylococcus aureus, read-out: PD50
Source text: (§1) |In vivo Activity of BB-[…] and Related Compounds (Mice, sc) | (PD50 (mgm./kg.)

[2] = system: Miscellaneous (Salmonella, Shigella, Citrobacter); experiment: microbe, parasite or virus in culture; conditions: read-out: Geometric Mean MIC
E. coli Juhl = experiment: In vivo activity (Mice, sc); conditions: several determinations listed
Source text: as §1

rabbits = experiment: Preliminary nephrotoxicity study; format: in vivo; conditions: two rabbits, 100 mg./kg. intravenously
Protocol: A preliminary nephrotoxicity study was carried out by administration of the test compound to a group of two rabbits at 100 mg./kg. intravenously.

[3] = table 4 (BB-S 525), Pr. mirabilis, 2nd line, read-out: MIC
[4] = table 2 (BB-S493), Pr. morganii A9553, read-out: MIC

Cn1nnnc1SCC1=C(C(=O)O)N2C(=O)[C@@H](NC(=O)[C@H](O)c3ccccc3)[C@H]2SC1 [Cefamandole, reference compound]
MIC (S. aureus (sensitive)): 0.1 µg/mL (≈ 0.216 µM) | MIC (E. coli (sensitive)): 0.3 µg/mL (≈ 0.649 µM) | MIC [1]: 5.7 µg/mL (≈ 12.3 µM) | MIC (Proteus (indole-); 6 strains, Mueller-Hinton agar, inoculum 10^4 dilution, MIC cutoff 200 mcg./ml.): 0.6 µg/mL (≈ 1.3 µM) | MIC (Klebsiella sp.): 2.4 µg/mL (≈ 5.19 µM) | MIC (Pr. mirabilis; table 2 (BB-S493), Pr. mirabilis A9554): 0.8 µg/mL (≈ 1.73 µM) | MIC (Pr. mirabilis; table 2 (BB-S493), Pr. mirabilis A9900): 0.8 µg/mL (≈ 1.73 µM) | MIC (Pr. mirabilis; table 4 (BB-S 525), Pr. mirabilis, 1st line): 0.4 µg/mL (≈ 0.865 µM) | MIC (Pr. mirabilis; [3]): 0.2 µg/mL (≈ 0.432 µM) | MIC (Pr. morganii; [4]): > 100 µg/mL | MIC (Pr. morganii; table 2 (BB-S493), Pr. morganii A20031): 0.8 µg/mL (≈ 1.73 µM) | MIC (Pr. morganii; table 4 (BB-S 525), Pr. morganii, 1st line): 3.1 µg/mL (≈ 6.7 µM) | MIC (Pr. morganii; table 4 (BB-S 525), Pr. morganii, 2nd line): 0.8 µg/mL (≈ 1.73 µM) | ED50 (S. aureus Smith): 0.93 mg/kg | PD50 (S. aureus Smith): 0.74 mgm./kg. and 0.6 mgm./kg. and 0.8 mgm./kg. | MIC [2]: 0.3 µg/mL (≈ 0.649 µM)

CNCc1ccccc1CC(=O)N[C@@H]1C(=O)N2C(C(=O)O)=C(CSc3ccc4nn(CC(=O)O)c(=O)n4n3)CS[C@H]12 [BB-S479, 7-[o-(Methylaminomethyl)phenylacetamido]-3-(2-carboxymethyl-2,3-dihydro-s-triazolo[4,3-b]pyridazin-3-on-6-ylthiomethyl)-3-cephem-4-carboxylic Acid]
MIC (S. aureus (sensitive)): 0.3 µg/mL (≈ 0.5 µM) | MIC (E. coli (sensitive); 13 strains, Mueller-Hinton agar, inoculum 10^4 dilution, MIC cutoff 200 mcg./ml.): 0.2 µg/mL (≈ 0.334 µM) | MIC [1]: 2.6 µg/mL (≈ 4.34 µM) | MIC (Proteus (indole-)): 0.5 µg/mL (≈ 0.834 µM) | MIC (Klebsiella sp.): 0.6 µg/mL (≈ 1 µM) | MIC (Pr. mirabilis; table 2 (BB-S493), Pr. mirabilis A9554, read-out: MIC): 0.1 µg/mL (≈ 0.167 µM) | MIC (Pr. mirabilis; table 2 (BB-S493), Pr. mirabilis A9900, read-out: MIC): 0.1 µg/mL (≈ 0.167 µM) | MIC (Pr. mirabilis; table 4 (BB-S 525), Pr. mirabilis, 1st line, read-out: MIC): 0.1 µg/mL (≈ 0.167 µM) | MIC (Pr. mirabilis; [3]): 0.1 µg/mL (≈ 0.167 µM) | MIC (Pr. morganii; [4]): > 100 µg/mL | MIC (Pr. morganii; table 2 (BB-S493), Pr. morganii A20031, read-out: MIC): 0.1 µg/mL (≈ 0.167 µM) | MIC (Pr. morganii; table 4 (BB-S 525), Pr. morganii, 1st line, read-out: MIC): > 100 µg/mL | MIC (Pr. morganii; table 4 (BB-S 525), Pr. morganii, 2nd line, read-out: MIC): 0.2 µg/mL (≈ 0.334 µM) | ED50 (E. coli Juhl; Escherichia coli, read-out: PD50): 0.19 mg/kg | PD50 (E. coli Juhl): 0.15 mgm./kg. and 0.12 mgm./kg. | ED50 (S. aureus Smith): 0.16 mg/kg | PD50 (S. aureus Smith): 0.12 mgm./kg. and 0.2 mgm./kg. | nephrotoxic potential (rabbits): little nephrotoxic potential | MIC [2]: 0.4 µg/mL (≈ 0.667 µM)
